Results reported in patent publication US12102085B2, “Insecticidal active mixtures comprising carboxamide compound” (priority 2013, dated 2024).

Assays:
Format in all cases: in vivo
[1] = tested on: vetch aphid (Megoura viciae); assay: Test B.1 Control of vetch aphid, sprayed broad bean leaf disks in 24-well microtiter plates; conditions: 5 days, aphid mortality and fecundity
Method: For evaluating control of vetch aphid (Megoura viciae) through contact or systemic means the test unit consisted of 24-well-microtiter plates containing broad bean leaf disks.
The compounds or mixtures were formulated using a solution containing 75% (v/v) water and 25% (v/v) DMSO. Different concentrations of formulated compounds or mixtures were sprayed onto the leaf disks at 2.5 μl, using a custom built micro atomizer, at two replications.
(§1) For the experimental mixtures in this test identical volumes of both mixing partners at the desired concentrations respectively, were mixed together.
After application, the leaf disks were air-dried and 5-8 adult aphids placed on the leaf disks inside the microtiter plate wells. The aphids were then allowed to suck on the treated leaf disks and incubated at 23±1° C., 50±5% RH for 5 days.
Aphid mortality and fecundity was then visually assessed.

[2] = tested on: Southern Green Stink Bug (Nezara viridula); assay: Test B.6 Control of Southern Green Stink Bug, dipped green beans and dipped insects; conditions: for Average Control % [observed mortality]: Nezara viridula 4th instar, 5 ppm, after 5 days
Method: The compounds and respective mixtures were formulated using a solution containing 50:50 water:acetone with 0.01 wt % Kinetic®. Whole Green Beans were rinsed in a 1% bleach solution, triple rinsed with DI water, and allowed to air dry at least 30 minutes in the fume hood. They were dipped in treatment solutions for approximately 5 seconds and allowed to air dry for another 30 minutes in the fume hood. For maximum exposure, Southern Green Stink Bugs (SGSB, 4th instar) were dipped in treatment solution for approximately 3 seconds and allowed to air dry in a cup lined with filter paper and closed with a vented lid for approximately 10 minutes in the fume hood. Three beans were placed in cups with a dry filter paper in the bottom and a portion cup with a cotton wick for water (=assay arena), and were infested with 4 SGSB per cup. Each treatment was replicated 3-fold (1 replicate=3 beans with 4 SGSB). The assays arenas were held at 27° C. and 45% room humidity. Data were recorded after 5 days as number of insects alive and dead. Nezara viridula mortality (%) was calculated as: [(pre-treatment count−post treatment count)/pre-treatment count]×100.

[3] = tested on: boll weevil (Anthonomus grandis); assay: Test B.2 Control of boll weevil, insect diet with eggs in 24-well microtiter plates; conditions: 5 days, egg and larval mortality
Method: For evaluating control of boll weevil (Anthonomus grandis) the test unit consisted of 24-well-microtiter plates containing an insect diet and 20-30 A. grandis eggs.
The compounds or mixtures were formulated using a solution containing 75% (v/v) water and 25% (v/v) DMSO. Different concentrations of formulated compounds or mixtures were sprayed onto the insect diet at 20 μl, using a custom built micro atomizer, at two replications.
as §1
After application, microtiter plates were incubated at 23±1° C., 50±5% RH for 5 days.
(§2) Egg and larval mortality was then visually assessed.

[4] = tested on: tobacco budworm (Heliothis virescens); assay: Test B.4 Control of tobacco budworm, insect diet with eggs in 96-well microtiter plates; conditions: 5 days, egg and larval mortality
Method: For evaluating control of tobacco budworm (Heliothis virescens) the test unit consisted of 96-well-microtiter plates containing an insect diet and 15-25 H. virescens eggs.
The compounds or mixtures were formulated using a solution containing 75% (v/v) water and 25% (v/v) DMSO. Different concentrations of formulated compounds or mixtures were sprayed onto the insect diet at 10 μl, using a custom built micro atomizer, at two replications.
as §1
(§3) After application, microtiter plates were incubated at 28±1° C., 80±5% RH for 5 days.
as §2

[5] = tested on: Mediterranean fruitfly (Ceratitis capitata); assay: Test B.5 Control of Mediterranean fruitfly, insect diet with eggs in 96-well microtiter plates; conditions: 5 days, egg and larval mortality
Method: For evaluating control of Mediterranean fruitfly (Ceratitis capitata) the test unit consisted of 96-well-microtiter plates containing an insect diet and 50-80 C. capitata eggs.
The compounds and respective mixtures were formulated using a solution containing 75% (v/v) water and 25% (v/v) DMSO. Different concentrations of formulated compounds and mixtures were sprayed onto the insect diet at 5 μl, using a custom built micro atomizer, at two replications. For the experimental mixtures in this test identical volumes of both mixing partners at the desired concentrations respectively, were mixed together.
as §3, §2

[6] = tested on: yellow fever mosquito (Aedes aegypti); assay: Test B.3 Control of yellow fever mosquito, larvae in 96-well microtiter plates; conditions: 2 days, larval mortality
Method: Test Principle: Curative Ultrasonic Spraying of Larvae in Liquid Diet
For evaluating control of yellow fever mosquito (Aedes aegypti) the test unit consisted of 96-well-microtiter plates containing 200 μl of tap water per well and 5-15 freshly hatched A. aegypti larvae.
The compounds or mixtures were formulated using a solution containing 75% (v/v) water and 25% (v/v) DMSO. Different concentrations of formulated compounds or mixtures were sprayed onto the insect diet at 2.5 μl, using a custom built micro atomizer, at two replications.
as §1
After application, microtiter plates were incubated at 28±1° C., 80±5% RH for 2 days.
Larval mortality was then visually assessed.

[7] = Nezara viridula, 120 h, read-out: Average Control % [observed mortality]

CC(C)(C)[C@]1(O)C[C@@H]2OC(=O)C[C@@]23C(=O)O[C@@H]2OC(=O)[C@H](O)[C@]213 [Bilobalid, (3aS,5aR,8aS,9R,10aR)-9-tert-butyl-8,9-dihydroxydihydro-9H-furo[2,3-b]furo[3′,2′;2,3]cyclopenta[1,2-c]furan-2,4,7(3H,8H)-trione]
Average Control % ([1]; 25 ppm): 0%
Average Control % [observed mortality] [2]: 19%

O=[N+]([O-])NC1=NCCN1Cc1ccc(Cl)nc1 [Imidacloprid, imidacloprid]
Average Control % ([3]; 10 ppm): 0%
Average Control % ([4]; 0.4 ppm): 0%
Average Control % ([5]; 10 ppm): 25%

C[C@@H]1C(=O)O[C@H]2C[C@@]34[C@H]5C[C@@H](C(C)(C)C)[C@]36[C@@H](OC(=O)[C@@H]6O)O[C@@]4(C(=O)O5)[C@]21O [Ginkolide A, ginkgolide A]
Average Control % [observed mortality] [2]: 13%

Cc1c(COC(=O)[C@@H]2[C@H](/C=C(\Cl)C(F)(F)F)C2(C)C)cccc1-c1ccccc1 (racemic) [Bifenthrin, bifenthrin]
Average Control % ([6]; 40 + 0 ppm): 0%

CN(C(=O)c1ccccc1)c1cccc(C(=O)Nc2c(Br)cc(C(F)(C(F)(F)F)C(F)(F)F)cc2C(F)(F)F)c1F [carboxamide compound of formula I]
Average Control % ([1]; 0.02 ppm): 0%
Average Control % ([1]; 0.5 ppm): 0%
Average Control % ([3]; 0.5 ppm): 0%
Average Control % ([6]; 0 + 0.5 ppm): 0%
Average Control % ([4]; 0.1 ppm): 0%
Average Control % ([4]; 0.5 ppm): 50%
Average Control % ([5]; 0 ppm (so in the source)): 0%
mortality at 1 ppm [2, 7]: 13%
mortality at 10 ppm [2, 7]: 88%

O=C(NC(=O)c1c(F)cccc1F)Nc1cc(Cl)c(F)c(Cl)c1F [Teflubenzuron, teflubenzuron]
Average Control % ([1]; 2 ppm): 0%
Average Control % ([4]; 50 ppm): 0%
